According to ChEMBL document CHEMBL1201862, “PubChem BioAssay data set” (2004):
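Five concentrations, 48 hours, 96-well plates. GI50 marks 50% less growth.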 Calls of active or inactive are those of the source. Cut-off read from the data, not from the text of the source: active = GI50 up to about 1.1 µM and inactive = higher.

Assays:
Experiment in all cases: growth of human tumour cells (NCI), 48 h
[1] = test system: 786-0
[2] = test system: A498
[3] = test system: A549
[4] = test system: ACHN
[5] = test system: BT-549
[6] = test system: CAKI-1
[7] = test system: CCRF-CEM
[8] = test system: COLO 205
[9] = test system: DU-145
[10] = test system: EKVX
[11] = test system: HCC 2998
[12] = test system: HCT-116
[13] = test system: HCT-15
[14] = test system: HOP-62
[15] = test system: HT-29
[16] = test system: Hs-578T
[17] = test system: IGROV-1
[18] = test system: K562
[19] = test system: KM12
[20] = test system: M14
[21] = test system: MCF7
[22] = test system: MDA-MB-231
[23] = test system: MDA-MB-435
[24] = test system: MDA-N
[25] = test system: MOLT-4
[26] = test system: Malme-3M
[27] = test system: NCI-H226
[28] = test system: NCI-H23
[29] = test system: NCI-H522
[30] = test system: NCI/ADR-RES
[31] = test system: OVCAR-3
[32] = test system: OVCAR-4
[33] = test system: OVCAR-5
[34] = test system: OVCAR-8
[35] = test system: PC-3
[36] = test system: RPMI-8226
[37] = test system: RXF 393
[38] = test system: SF-268
[39] = test system: SF-295
[40] = test system: SK-MEL-28
[41] = test system: SK-MEL-2
[42] = test system: SK-MEL-5
[43] = test system: SK-OV-3
[44] = test system: SN12C
[45] = test system: SNB-19
[46] = test system: SW-620
[47] = test system: T47D
[48] = test system: TK-10
[49] = test system: U-251
[50] = test system: UACC-257
[51] = test system: UACC-62
[52] = test system: UO-31
[53] = test system: HL-60
[54] = test system: HOP-92
[55] = test system: LOX IMVI
[56] = test system: NCI-H460
[57] = test system: SNB-75

## CC12CCC(CC1=O)C2(C)CCC(N)=O (configuration not stated)
[1]
  GI50: > 100 µM (inactive)
[2]
  GI50: > 100 µM (inactive)
[3]
  GI50: > 100 µM (inactive)
[4]
  GI50: > 100 µM (inactive)
[5]
  GI50: > 100 µM (inactive)
[6]
  GI50: > 100 µM (inactive)
[7]
  GI50: > 100 µM (inactive)
[8]
  GI50: > 100 µM (inactive)
[9]
  GI50: > 100 µM (inactive)
[10]
  GI50: > 100 µM (inactive)
[11]
  GI50: > 100 µM (inactive)
[12]
  GI50: > 100 µM (inactive)
[13]
  GI50: > 100 µM
[14]
  GI50: > 100 µM (inactive)
[15]
  GI50: > 100 µM (inactive)
[16]
  GI50: > 100 µM (inactive)
[17]
  GI50: > 100 µM (inactive)
[18]
  GI50: > 100 µM (inactive)
[19]
  GI50: > 100 µM (inactive)
[20]
  GI50: > 100 µM (inactive)
[21]
  GI50: > 100 µM (inactive)
[22]
  GI50: > 100 µM (inactive)
[23]
  GI50: > 100 µM (inactive)
[24]
  GI50: > 100 µM (inactive)
[25]
  GI50: > 100 µM (inactive)
[26]
  GI50: > 100 µM (inactive)
[27]
  GI50: > 100 µM (inactive)
[28]
  GI50: > 100 µM (inactive)
[29]
  GI50: > 100 µM (inactive)
[30]
  GI50: > 100 µM (inactive)
[31]
  GI50: > 100 µM (inactive)
[32]
  GI50: > 100 µM (inactive)
[33]
  GI50: > 100 µM (inactive)
[34]
  GI50: > 100 µM (inactive)
[35]
  GI50: > 100 µM (inactive)
[36]
  GI50: > 100 µM (inactive)
[37]
  GI50: > 100 µM (inactive)
[38]
  GI50: > 100 µM (inactive)
[39]
  GI50: > 100 µM (inactive)
[40]
  GI50: > 100 µM (inactive)
[41]
  GI50: > 100 µM (inactive)
[42]
  GI50: > 100 µM (inactive)
[43]
  GI50: > 100 µM (inactive)
[44]
  GI50: > 100 µM (inactive)
[45]
  GI50: > 100 µM (inactive)
[46]
  GI50: > 100 µM (inactive)
[47]
  GI50: > 100 µM (inactive)
[48]
  GI50: > 100 µM (inactive)
[49]
  GI50: > 100 µM (inactive)
[50]
  GI50: > 100 µM (inactive)
[51]
  GI50: > 100 µM (inactive)
[52]
  GI50: > 100 µM (inactive)

## O=[As](O)(O)c1ccc(/N=N/c2ccc(O)cc2)cc1
[1]
  GI50: > 100 µM (inactive)
[2]
  GI50: > 100 µM (inactive)
[3]
  GI50: > 100 µM (inactive)
[4]
  GI50: > 100 µM (inactive)
[5]
  GI50: > 100 µM (inactive)
[6]
  GI50: > 100 µM (inactive)
[7]
  GI50: > 100 µM (inactive)
[8]
  GI50: > 100 µM (inactive)
[9]
  GI50: > 100 µM (inactive)
[10]
  GI50: > 100 µM (inactive)
[12]
  GI50: > 100 µM (inactive)
[13]
  GI50: > 100 µM
[53]
  GI50: > 100 µM (inactive)
[14]
  GI50: > 100 µM (inactive)
[54]
  GI50: > 100 µM (inactive)
[15]
  GI50: > 100 µM (inactive)
[16]
  GI50: > 100 µM (inactive)
[17]
  GI50: > 100 µM (inactive)
[18]
  GI50: 5.69 µM (inactive)
[19]
  GI50: > 100 µM (inactive)
[55]
  GI50: > 100 µM (inactive)
[20]
  GI50: > 100 µM (inactive)
[21]
  GI50: > 100 µM (inactive)
[22]
  GI50: > 100 µM (inactive)
[23]
  GI50: > 100 µM (inactive)
[24]
  GI50: > 100 µM (inactive)
[25]
  GI50: 4.32 µM (inactive)
[26]
  GI50: > 100 µM (inactive)
[27]
  GI50: > 100 µM (inactive)
[28]
  GI50: > 100 µM (inactive)
[56]
  GI50: > 100 µM (inactive)
[29]
  GI50: > 100 µM (inactive)
[30]
  GI50: > 100 µM (inactive)
[31]
  GI50: > 100 µM (inactive)
[32]
  GI50: > 100 µM (inactive)
[33]
  GI50: > 100 µM (inactive)
[34]
  GI50: > 100 µM (inactive)
[35]
  GI50: > 100 µM (inactive)
[36]
  GI50: > 100 µM (inactive)
[37]
  GI50: > 100 µM (inactive)
[38]
  GI50: > 100 µM (inactive)
[39]
  GI50: > 100 µM (inactive)
[40]
  GI50: > 100 µM (inactive)
[41]
  GI50: > 100 µM (inactive)
[42]
  GI50: > 100 µM (inactive)
[43]
  GI50: > 100 µM (inactive)
[44]
  GI50: > 100 µM (inactive)
[45]
  GI50: > 100 µM (inactive)
[57]
  GI50: > 100 µM (inactive)
[46]
  GI50: > 100 µM (inactive)
[47]
  GI50: > 100 µM (inactive)
[48]
  GI50: > 100 µM (inactive)
[49]
  GI50: > 100 µM (inactive)
[51]
  GI50: > 100 µM (inactive)
[52]
  GI50: > 100 µM (inactive)
